Laboratory results published in patent US20240358837A1, “Amorphous Photosensitizing Particles, Methods For The Preparation Thereof, And Methods For The Use Thereof” (priority 2021, published 2024).

How the values were obtained:
blood-brain barrier = test: Photodynamic opening of the blood-brain barrier (Evans blue) in rats; format: in vivo, rat; conditions: low-dose PDT, 80 J/cm^2, 85 mW/cm^2
Method: Sprague-Dawley rats (4-5 weeks old, Envigo) received an intravenous injection of NanoVP (0.25 or 0.5 mg/kg) or 5-aminolevulinic acid (5-ALA, 20 or 125 mg/kg) at 30 min or 4 hours before PDT. PDT parameters, including photosensitizer concentration, drug-light interval, irradiance, and radiant exposure, were selected. At 30 minutes post-photosensitizer injection, rats were anesthetized with isoflurane and secured within a stereotaxic frame.
During the 30-minute drug-light interval, a craniotomy was performed. The top of the rat head was shaved, and the skin was removed. The periosteum was retracted to the edges of the skull. Using a micro drill (OmniDrill35, WPI), a circle about 4 mm in diameter was sketched into the right parietal bone. Drilling was stopped periodically, and PBS was applied to prevent heating. […]
PDT was performed by light activation of the exposed brain (NanoVP: 690 nm, 80 or 100 J/cm^2; 5-ALA: 635 nm, 60 or 80 J/cm^2; 40 or 85 mW/cm^2; ML6600, Modulight). At 90 minutes post-PDT, rats received an intravenous injection of Evans blue dye (2%, 4 mL/kg) to determine the blood-brain barrier integrity using imaging and extraction methods In particular, Evans blue was quantified. […] Samples were centrifuged to pellet the tissue, and the optical density of Evans blue within the supernatant at 610 nm was measured on a multi-mode microplate reader. […]

[1] = non-tumor-bearing animals, 125 mg/kg 5-ALA and 54 J, within 5 days of treatment; cited from earlier work
U87 cancer cells = test: Lysosomal damage (neutral red uptake assay) after PDT; format: cell-based, human; conditions: 690 nm, 1 J/cm^2, 50 mW/cm^2; 0.25 μM
Method: (§1) At 24 hours after PDT, cell viability was determined using MTT [3-(4,5-dimethylthiazol-2-yl)-2,5-diphenyltetrazolium bromide] assay or neutral red assay (Abcam) following the vendor's protocol. For dark toxicity evaluation, cells were incubated with media containing photosensitizers (0-40 μM) for 72 hours, followed by the MTT assay. The photosensitizer efflux by ATP binding cassette (ABC) transporters was studied in MCF-7 and its multi-drug resistant sublines (MCF-7 TX400 and MCF-7 MX100) by adapting the protocols described herein.

[2] = Fluorescence self-quenching (fluorescence in DMSO divided by fluorescence in PBS); format: physicochemical; conditions: 0.625-5 μM
Method: The stability of NanoVP particles in PBS at 4° C. was determined by monitoring their hydrodynamic size and polydispersity index using a particle sizer analyzer for up to one year. NanoVP singlet oxygen (^1O2) generation, self-quenching, and drug release were studied in 96-well plates as described previously. NanoVP and singlet oxygen sensor green (SOSG) at 5 μM were mixed and irradiated with 690 nm light (10 J/cm^2, 10 mW/cm^2; ML6600, Modulight). A multi-mode microplate reader (Synergy Neo2, BioTek) acquired fluorescence signals of VP (Excitation/Emission: 435/650-750 nm) or SOSG (Excitation/Emission: 504/525 nm) before and after light irradiation. Self-quenching (FDSMO/FO) is defined as the fluorescence after disruption of the NanoVP using DMSO (FDSMO) divided by the fluorescence of the NanoVP in PBS (FO). Photosensitizer release from NanoVP (de-quenching) was studied by monitoring the gain in VP fluorescence signal in PBS/DMSO buffer (0-100% v/v) at room temperature or in Eagle's Minimum Essential Medium (EMEM, Cellgro) with 0-10% v/v fetal bovine serum (FBS, Gibco) at 37° C.
Fluorescence photoactivity was defined as the maximal fluorescence intensity (FL) of NC-VP and L-VP in PBS divided by the maximal fluorescence intensity (FL) of NC-VP and L-VP in DMSO. The absorbance spectrums of the constructs over the visible spectrum were determined in PBS and DMSO. […]

U87 cells = test: PDT cell viability (MTT assay) in U87 cells; format: cell-based, human; conditions: MTT 24 hours after PDT, 0-5 J/cm^2, 10 mW/cm^2
Method: Cells were cultured overnight in a 35-mm Petri dish or 96-well black wall plates (1-3.3×10^4 cells/cm^2) and then incubated with photosensitizers (i.e., NanoVP, free-form VP, or Liposomal VP; 0.25 μM) for 24 hours. Subsequently, cells were washed twice with PBS and incubated with a photosensitizer free complete medium. Photosensitizer uptake in cells was determined using extraction methods followed by VP fluorescence measurements (Excitation/Emission: 435/700±10 nm, Synergy Neo2, BioTek) or visualized using fluorescence imaging (Lionheart, BioTek) as described previously. PDT was performed by exposing the cells to 690 nm light (0-10 J/cm^2, […], bottom illumination; ML6600, Modulight).
as §1

caspase 3 in U87 cells = test: Total and cleaved caspase 3 immunoblotting after PDT; format: cell-based, human; conditions: one-hour post light activation
Method: Expressions of total and cleaved caspase 3 were examined by immunoblotting techniques. U87 cells were plated in a 35-mm Petri dish (Falcon) at a density of 2.2×10^4 cells/cm^2. Cells were incubated with 0.25 μM of NanoVP, free-form VP, or Liposomal VP for 24 hours. Cells were washed twice with PBS and irradiated with 690-nm light (10 J/cm^2, 50 mW/cm^2) in a fresh culture medium. At 1 hour after PDT, cell lysates were collected in radioimmunoprecipitation assay (RIPA) buffer supplemented with a 1% protease inhibitor. Protein lysates (22 μg) were separated on a 4-12% precast Bis-Tris gel (NuPAGE) and transferred onto a nitrocellulose membrane. After blocking with Odyssey blocking buffer (Li-COR) for 1 hour, blots were incubated with primary antibody against beta-actin (#3700, cell signaling), caspase 3 (#9662, Cell Signaling,), or cleaved caspase 3 (#9661, Cell Signaling) overnight at 4° C. Blots were washed with 1X Tris-buffered Saline, 0.1% Tween® 20 Detergent (TBST) buffer followed by incubation with IRDye 680RD goat anti-mouse secondary antibody (926-68070, Li-COR) or IRDye 800CW goat anti-rabbit secondary antibody (926-32211, Li-COR) for 1 hour at room temperature based on the supplier's advice. Visualization of protein bands was developed using the LiCor ODYSSEY CLx (Li-COR). β-actin serviced as a loading control. Band intensity was determined using LiCOR ODYSSEY CLx software. PDT-treated samples were normalized to a no-treatment control.

Row | fluorescence self-quenching [2] | half maximal inhibition concentration (IC50) of PDT (U87 cells) [μM×J/cm^2] | Compound | depth at which extravasated Evan Blue is visible in rat brain (blood-brain barrier) | mortality [1] [%] | lysosomal integrity (U87 cancer cells) | cleaved-to-total caspase-3 ratio (caspase 3 in U87 cells) | reduction of total (pro) caspase-3 expression (caspase 3 in U87 cells) [%] | increase in cleaved caspase-3 formation (caspase 3 in U87 cells; 10 J/cm^2, 50 mW/cm^2) [fold]
1 | – | – | NCC(=O)CCC(=O)O [5-ALA, 5-aminolevulinic acid] | up to 1 mm | 50 | – | – | – | –
2 | up to 78 fold | 0.20 | verteporfin [free-form VP] | – | – | does not affect lysosomal integrity | ~4.4 | ~50 | ~2.4
